Measured values reported in patent publication US4579951A (priority 1984, dated 1986).
Where a name gives a salt, the structure may show the parent alone.

System: cholera toxin-induced intestinal fluid secretion
Assay: animal or person
Format: in vivo, rat (female Charles River)
Conditions: for ED50: Rattus norvegicus, sc, read-out: Inhibitory Doses (ID50's); for Inhibitory Doses (ID50's): subcutaneous route, class symbol, screening doses 10 and 20 mg/kg

SMILES | ED50 [mg/kg] | other results
Cc1c(O)cccc1NC1=NCCC1.Cl [Example 3, 3-[(3,4-dihydro-2H-pyrrol-5-yl)amino]-2-methylphenol hydrochloride] | 8.3 | 
Oc1cccc(NC2=NCCC2)c1 [Example 5, 3-[3,4-dihydro-2H-pyrrol-5-yl)amino]phenol hydrochloride] | 21.3 | 
Cc1cc(O)ccc1NC1=NCCC1 [Example 6, 4-[(3,4-dihydro-2H-pyrrol-5-yl)amino]-3-methylphenol 1/4 hydrate] | 6.5 | 
Cc1c(NC2=NCCC2)cccc1OC(=O)C(C)(C)C [Example 10, 3-[(3,4-dihydro-2H-pyrrol-5-yl)amino]-2-methylphenyl 2,2-dimethylpropanoatehydrochloride 1/4 hydrate] | 6.4 | 
Cc1cc(OC(=O)C(C)(C)C)ccc1NC1=NCCC1 [Example 11, 4-[(3,4-dihydro-2H-pyrrol-5-yl)amino]-3-methylphenyl 2,2-dimethylpropanoatehydrochloride] | 9 | 
Cc1c(NC2=NCCC2)cccc1OC(=O)c1ccccc1 [Example 12, 3-[(3,4-dihydro-2H-pyrrol-5-yl)amino]-2-methylphenyl benzoate hydrobromide 1/4 hydrate] | 5.7 | 
Cc1c(NC2=NCCC2)cccc1OC(=O)C1CCCCC1.Cl [Example 14, 3-[(3,4-dihydro-2H-pyrrol-5-yl)amino]-2-methylphenyl cyclohexanecarboxylate hydrochloride] | 8.1 | 
COc1ccccc1C(=O)Oc1cccc(NC2=NCCC2)c1C.Cl [Example 15, 3-[(3,4-dihydro-2H-pyrrol-5-yl)amino]-2-methylphenyl 2-methoxybenzoate hydrochloride] | 6.2 | 
CC(=O)Oc1cccc(NC2=NCCC2)c1C.Cl [Example 16, 3-[(3,4-dihydro-2H-pyrrol-5-yl)amino]-2-methylphenyl acetate hydrochloride] | 10.1 | 
COc1ccc(C(=O)Oc2cccc(NC3=NCCC3)c2C)cc1 [Example 17, 3-[(3,4-dihydro-2H-pyrrol-5-yl)amino]-2-methylphenyl 4-methoxybenzoate hydrochloride 5/8 hydrate] | 9.5 | 
Cc1ccccc1C(=O)Oc1cccc(NC2=NCCC2)c1C.Cl [Example 18, 3-[(3,4-dihydro-2H-pyrrol-5-yl)amino]-2-methylphenyl 2-methylbenzoate hydrochloride] | 40.5 | 
Cc1ccc(C(=O)Oc2cccc(NC3=NCCC3)c2C)cc1.Cl [Example 19, 3-[(3,4-dihydro-2H-pyrrol-5-yl)amino]-2-methylphenyl 4-methylbenzoate hydrochloride] | 5.9 | 
Cc1c(NC2=NCCC2)cccc1OC(=O)c1ccc(Cl)cc1 [Example 20, 3-[(3,4-dihydro-2H-pyrrol-5-yl)amino]-2-methylphenyl 4-chlorobenzoate hydrochloride 1/4 ethanol] | 10.6 | 
Cc1c(NC2=NCCC2)cccc1OC(=O)c1ccc(Cl)c(Cl)c1.Cl [Example 21, 3-[(3,4-dihydro-2H-pyrrol-5-yl)amino]-2-methylphenyl 3,4-dichlorobenzoate hydrochloride] | 5 | 
Cc1c(NC2=NCCC2)cccc1OC(=O)C1CC1.Cl [Example 22, 3-[(3,4-dihydro-2H-pyrrol-5-yl)amino]-2-methylphenyl cyclopropanecarboxylate hydrochloride] | 6.8 | 
Cc1c(NC2=NCCC2)cccc1OC(=O)C12CC3CC(CC(C3)C1)C2 [Example 23, 3-[(3,4-dihydro-2H-pyrrol-5-yl)amino]-2-methylphenyl adamantane-1-carboxylate hydrochloride 1/4 hydrate] | 9.1 | 
Cc1c(NC2=NCCC2)cccc1OC(=O)c1ccco1 [Example 24, 3-[(3,4-dihydro-2H-pyrrol-5-yl)amino]-2-methylphenyl furan-2-carboxylate hydrochloride 1/8 methanol] | 8.3 | 
CN=C(N)NC(=O)Nc1c(C)cccc1C [Lidamidine, reference compound] |  | activity in the cholera-induced intestinal fluid secretion assay (in words) (antisecretory antidiarrheal activity, qualitative statement): active
COC(=O)c1ccc(NC2=NCCC2)c(C)c1 [reference compound] | 74 | 
COc1ccc(NC2=NCCC2)c(C)c1 [reference compound] |  | Inhibitory Doses (ID50's): I
COc1cccc(NC2=NCCC2)c1C [reference compound] |  | Inhibitory Doses (ID50's): I
